Laboratory results taken from ChEMBL document CHEMBL1212895.

Columns and labels:
[1] = target: T1, Estrogen receptor (Homo sapiens) (UniProt P03372); settings: MCF7, 25 uM
T1 sequence (whole entry): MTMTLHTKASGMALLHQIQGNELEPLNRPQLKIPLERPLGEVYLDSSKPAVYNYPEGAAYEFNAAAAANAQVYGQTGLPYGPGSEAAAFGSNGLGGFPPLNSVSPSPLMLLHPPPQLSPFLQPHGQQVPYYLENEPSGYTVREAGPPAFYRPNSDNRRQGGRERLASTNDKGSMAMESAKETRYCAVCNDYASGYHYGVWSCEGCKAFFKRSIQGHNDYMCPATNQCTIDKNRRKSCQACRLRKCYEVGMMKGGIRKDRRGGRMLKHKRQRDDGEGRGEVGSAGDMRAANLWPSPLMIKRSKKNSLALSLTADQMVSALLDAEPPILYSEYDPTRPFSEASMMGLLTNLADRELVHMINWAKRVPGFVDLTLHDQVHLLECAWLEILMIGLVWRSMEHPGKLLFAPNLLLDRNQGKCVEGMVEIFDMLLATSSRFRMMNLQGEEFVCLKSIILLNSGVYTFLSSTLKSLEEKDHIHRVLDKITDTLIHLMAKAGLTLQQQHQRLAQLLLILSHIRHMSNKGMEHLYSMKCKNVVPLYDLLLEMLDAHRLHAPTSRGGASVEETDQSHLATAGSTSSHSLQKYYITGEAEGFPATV

[2] = target: T1, Estrogen receptor (Homo sapiens); settings: MCF7, 10 uM

`COc1ccc2c(=O)c(-c3ccc(O)cc3)coc2c1` gave an inhibition [1] of 33.2%.

`CCOc1ccc2c(=O)c(-c3ccc(O)cc3)coc2c1` showed an inhibition [1] of 18.8%.

With `CCCCOc1ccc2c(=O)c(-c3ccc(O)cc3)coc2c1` the inhibition [1] was 49.8%.

In the case of `O=c1c(-c2ccc(O)cc2)coc2cc(O)ccc12`, the inhibition [2] is reported as 17.2%.

In the case of `CC1(C)C=Cc2c(ccc3c(=O)c(-c4ccc(O)cc4)coc23)O1`, the inhibition [2] is reported as 54.6% and the inhibition [1] is reported as 100%.

`O=c1c(-c2ccc(O)cc2)coc2cc(OC3CCCC3)ccc12` showed an inhibition [2] of 54.1% and an inhibition [1] of 89.8%.

With `CCCOc1ccc2c(=O)c(-c3ccc(O)cc3)coc2c1` the inhibition [1] was 41.4%.

`CC(C)COc1ccc2c(=O)c(-c3ccc(O)cc3)coc2c1` gave an inhibition [2] of 60.5% and an inhibition [1] of 91.3%.

In the case of `CCCCCCOc1ccc2c(=O)c(-c3ccc(O)cc3)coc2c1`, the inhibition [1] is reported as 46.4%.

With `CC(C)Oc1ccc2c(=O)c(-c3ccc(O)cc3)coc2c1` the inhibition [2] was 33.4% and the inhibition [1] was 68.1%.
